From publication PMC8992272, “Stabilities of Three Key Biological Trisulfides with Implications for Their Roles in the Release of Hydrogen Sulfide and Bioaccumulation of Sulfane Sulfur” (ACS Omega, 2022)
Like-named read-outs stand apart in the source and are kept apart here.

Assays:
Type in all cases: physicochemical
[1] = Stability in D2O in the presence of butylamine or triethylamine, tracked by 1H NMR
Method: N-Acetylcysteine trisulfide (26.5 mg, 66 μmol) was dissolved in 600 μL of D2O. Butylamine (5.0 mg, 68 μmol) was added, and the ^1H NMR spectra were taken periodically to track degradation.
N-Acetylcysteine trisulfide (26.5 mg, 66 μmol) was dissolved in 600 μL of D2O. Triethylamine (8.0 mg, 79 μmol) was added, and the ^1H NMR spectra were taken periodically to track degradation.
Cysteine trisulfide (5.5 mg, 20 μmol) was added to 600 μL of D2O. The solution was filtered to remove undissolved particles. […] The ^1H NMR spectra were taken periodically to track degradation.
Cysteine trisulfide (4.3 mg, 16 μmol) was added to 600 μL of D2O. The solution was filtered to remove undissolved particles. […] The ^1H NMR spectra were taken periodically to track degradation.
N-Acetylcysteine tetrasulfide (17.2 mg, 44 μmol) was dissolved in 600 μL of D2O. Butylamine (9.9 mg, 135 μmol) was added, and the ^1H NMR spectra were taken periodically to track degradation.
N-Acetylcysteine tetrasulfide (17.2 mg, 44 μmol) was dissolved in 600 μL of D2O. Triethylamine (13.5 mg, 135 μmol) was added, and the ^1H NMR spectra were taken periodically to track degradation.

[2] = Kinetics of degradation of trisulfides in the presence of a thiol (1H NMR); conditions: water, NAC added, vial uncapped to allow H2S to evaporate, after 1 day
Method: To investigate the rate of reaction of trisulfides with an added thiol and to characterize the degradation products, 5 mM trisulfides of cysteine, glutathione, and NAC were separately added to […] For instance, 5 equiv of cysteine was added to cysteine trisulfide and 5 equiv of NAC was added to NAC trisulfide. The pH was buffered to a pH of 7.0 to ensure that each trisulfide was soluble and to closely mimic in vivo pH.
Cysteine trisulfide (0.7 mg, 2.6 μmol) was dissolved in 500 μL of D2O buffered to pH 7.0, yielding a 5 mM solution. Cysteine (1.5 mg, 12.4 μmol) was added, and the ^1H NMR spectra were periodically obtained to track degradation.
Glutathione trisulfide (1.6 mg, 2.6 μmol) was added to 500 μL of D2O buffered to a pH of 7.0, yielding a 5 mM solution. Glutathione (3.8 mg, 12.4 μmol) was added, and the ^1H NMR spectra were obtained periodically to track degradation.
N-Acetylcysteine trisulfide (1.0 mg, 2.6 μmol) was dissolved in 500 μL of D2O buffered to pH 7.0, yielding a 5 mM solution. N-Acetylcysteine (2.1 mg, 12.4 μmol) was added, and the ^1H NMR spectra were obtained periodically to track degradation.
Cysteine trisulfide (0.7 mg, 2.6 μmol) was dissolved in 500 μL of D2O buffered to pH 7.0, yielding a 5 mM solution. tert-Butanol (0.8 μL, 2.6 μmol) was added as an internal standard. […]

[3] = Solubility observations; conditions: CDCl3 and acetone
[4] = Stability in nonbuffered D2O at room and elevated temperature (1H NMR)
Method: N-Acetylcysteine trisulfide (24.3 mg, 61 μmol) was dissolved in 500 μL of D2O and placed in a 40 °C oil bath. The ^1H NMR spectra were taken periodically to track degradation.
N-Acetylcysteine trisulfide (24.3 mg, 61 μmol) was dissolved in 500 μL of D2O and placed in a 60 °C oil bath. The ^1H NMR spectra were taken periodically to track degradation.
N-Acetylcysteine tetrasulfide (8.0 mg, 21 μmol) was dissolved in 600 μL of D2O. The ^1H NMR spectra were taken periodically to track degradation.
N-Acetylcysteine tetrasulfide (10.0 mg, 26 μmol) was dissolved in 600 μL of D2O and placed in a 40 °C oil bath. The ^1H NMR spectra were taken periodically to track degradation.

[5] = Stability in the presence of acetonitrile, benzamide, zinc sulfate or iron sulfate, or in methanol-d4 (1H NMR)
Method: N-Acetylcysteine trisulfide (26.5 mg, 66 μmol) was dissolved in 600 μL of D2O. Acetonitrile (3.0 mg, 73 μmol) was added, and the ^1H NMR spectra were taken periodically to track degradation.
N-Acetylcysteine trisulfide (31.4 mg, 78 μmol) was dissolved in 600 μL of D2O. Benzamide (9.4 mg, 78 μmol) was added, and the ^1H NMR spectra were taken periodically to track degradation.
N-Acetylcysteine trisulfide (15.0 mg, 38 μmol) was dissolved in 600 μL of D2O. ZnSO4 (11.8 mg, 73 μmol) was added, and the ^1H NMR spectra were taken periodically to track degradation.
N-Acetylcysteine trisulfide (15.0 mg, 38 μmol) was dissolved in 600 μL of D2O. FeSO4·7H2O (11.6 mg, 41 μmol) was added, and the ^1H NMR spectra were taken periodically to track degradation.
N-Acetylcysteine trisulfide (32.1 mg, 80 μmol) was dissolved in 600 μL of CD3OD. The ^1H NMR spectra were taken periodically to track degradation.
Cysteine trisulfide (5.1 mg, 19 μmol) was added to 600 μL of D2O. Solution was filtered to remove undissolved particles. […] The ^1H NMR spectra were taken periodically to track degradation.
Cysteine trisulfide (6.8 mg, 25 μmol) was added to 600 μL of D2O. Solution was filtered to remove undissolved particles. […] The ^1H NMR spectra were taken periodically to track degradation.

[6] = Equilibrium between di-, tri- and tetrasulfides in the presence of elemental sulfur (1H NMR); conditions: water with elemental sulfur, 40 °C, after 15 days, no amine
Method: To test this hypothesis, a reaction was completed in D2O with elemental sulfur, NAC disulfide, and butylamine.
To understand why the degradation leveled off, NAC trisulfide was dissolved in water, elemental sulfur was added, and the contents were heated to 40 °C.
N-Acetylcysteine disulfide (9.3 mg, 23 μmol) was dissolved in 600 μL of D2O. Elemental sulfur (6.8 mg, 0.21 mmol) and butylamine (18.5 mg, 0.25 mmol) were added, and the ^1H NMR spectra were periodically obtained to track the equilibrium.

degraded ([1]; 1 equiv butylamine, D2O, after 1 h): 43%
degraded ([1]; 1 equiv butylamine, D2O, after 24 h): 92%
degraded ([1]; 1 equiv triethylamine, D2O, after 1 h): 14%
degraded ([1]; 1 equiv triethylamine, D2O, after 24 h): 87%
half-life ([1]; D2O with butylamine, in the presence of butylamine (abstract), read-out: half-life): 53 min
half-life ([1]; D2O with butylamine, in the presence of butylamine, D2O, early data points, read-out: estimated half-life of degradation (converted)): 56.4 min
half-life ([1]; D2O with triethylamine, in the presence of triethylamine, D2O, early data points, read-out: estimated half-life of degradation (converted)): 132 min
time to reach equilibrium ([1]; addition of butylamine or triethylamine): less than 5 h
tetrasulfide observed as product ([1]; both reactions (butylamine, triethylamine), D2O): < 3%
trisulfide remaining [2]: no NAC trisulfide was observed
solubility [3]: very limited solubility
degraded ([4]; 60 °C, in 3 days): 74%
degradation ([4]; water, 40 °C oil bath, after 10 days): No noticeable degradation
degradation ([5]; acetonitrile and benzamide added, D2O, after 8 days): No degradation
degradation ([5]; methanol-d4, after 8 days): no observable degradation
stability ([5]; zinc sulfate and iron sulfate in D2O, 11 days): stable
disulfide formed [6]: 12%
tetrasulfide formed [6]: 11%
SMILES: CC(=O)N[C@@H](CSSSC[C@H](NC(C)=O)C(=O)O)C(=O)O [NAC trisulfide, N-Acetylcysteine Trisulfide]
